Test results published in patent US12364696B2, “Treatment of autoimmune disease” (priority 2019, dated 2025).
Several values for one entry are separate records, joined by “and”; a condition that tells them apart may be missing. Equal values may be shown once. Entries after “also recorded” stand apart in the source; their conditions may differ. Read-outs that look alike come from different tables or passages of the source.

How the values were obtained:
[1] = system: patients with moderate to severe, treatment-resistant alopecia areata; details: for Mean change from baseline in Assessment of Quality of Life-8D (AQoL-8D) score at Week 28: n = 13; for Mean change from baseline in Alopecia Areata Symptom Impact Scale (AASIS) score at Week 28 - Global Symptom Impact Score / Mean change from baseline in Alopecia Areata Symptom Impact Scale (AASIS) score at Week 28 - Scalp Hair Loss Score: n = 14
[2] = system: patients with chronic, refractory, moderate to severe alopecia areata; experiment: Retrospective clinical study of orally administered and sublingual tofacitinib, 7-point assessment scale of hair regrowth; format: in vivo, human; details: for Increase in hair growth of >+1, % of patients / Increase in hair growth of >+1, number of patients / Mean score on 7-point assessment scale / Patients who achieved +3 (complete response, CR) / Median score on 7-point assessment scale: all patients
[3] = sublingual, 5 mg tablets, 3 months
[4] = sublingual, 5 mg tablets, 3 months, n = 16
[5] = sublingual, listed as sublingual tofacitinib
[6] = dose range 1-20 mg, oral or sublingual
[7] = of 71 patients on immunosuppressive co-therapy at start
[8] = oral or sublingual, n = 127, listed as Tofacitinib
[9] = orally administered, 3 months, n = 39, mean dose 4.19 mg
[10] = orally administered, 6 months, n = 36, mean dose 4.96 mg
[11] = orally administered, 9 months, n = 25, mean dose 5.58 mg
[12] = orally administered, 12 months, n = 21, mean dose 5.63 mg
[13] = orally administered, 15 months, n = 16, mean dose 6.90 mg
[14] = orally administered, 18 months, n = 7, mean dose 6.07 mg
[15] = prolonged disease duration >10 years, n = 38
[16] = sublingual, 3 months, n = 88, mean dose 3.73 mg
[17] = sublingual, 6 months, n = 74, mean dose 4.48 mg
[18] = sublingual, 9 months, n = 53, mean dose 4.71 mg
[19] = sublingual, 12 months, n = 34, mean dose 6.25 mg
[20] = sublingual, 15 months, n = 15, mean dose 6.81 mg
[21] = sublingual, 18 months, n = 3, mean dose 5.00 mg
[22] = tofacitinib monotherapy, n = 56

## C[C@@H]1CCN(C(=O)CC#N)C[C@@H]1N(C)c1ncnc2[nH]ccc12 [tofacitinib]
[1]; human, in vivo
  Changes in blood biochemistry: no clinically significant changes
  Serious adverse events: no serious adverse events
  Withdrawals secondary to adverse events: no withdrawals secondary to adverse events
[1]; [3]
  Good grade respondents (50-75%), proportion: 1/16
  High grade respondents (75-100%), proportion: 1/16
  Low grade respondents (15-29% reduction in SALT score at Week 28), proportion: 3/16
  Mean reduction in SALT score of the two patients who achieved >50% reduction: 60.3%
  Medium grade respondents (30-49%), proportion: 1/16
  Participants achieving at least 1 grade improvement in eyebrow assessment scale at Week 28, proportion: 8/16
  Participants achieving at least 1 grade improvement in eyelash assessment scale at Week 28, proportion: 6/16
  Participants who achieved a 100% reduction in SALT score at Week 28: No participants
  Patients who achieved a >50% reduction in SALT score: 12.5%
[1]; [4]
  Mean reduction from baseline (Week 16) of SALT score at Week 28: 15.57%
  Participants achieving at least 1 grade improvement in eyebrow assessment scale at Week 28, percentage: 50%
  Participants achieving at least 1 grade improvement in eyelash assessment scale at Week 28, percentage: 37.5%
[1]; sublingual, 5 mg tablets, 3 months, n = 16, listed as sublingual tofacitinib
  Participants achieving at least 1 grade improvement in eyebrow assessment scale at Week 28, percentage: (50%)
[1]; sublingual, 5 mg tablets, Week 28 vs Week 16
  Total Treatment Response, proportion: 6/16
[1]; sublingual, 5 mg tablets, Week 28 vs Week 16, n = 16, listed as Sublingual tofacitinib
  Total Treatment Response, percentage: 37.5%
[1]; sublingual
  Mean change from baseline in Assessment of Quality of Life-8D (AQoL-8D) score at Week 28: 0.0148
  Mean change from baseline in Alopecia Areata Symptom Impact Scale (AASIS) score at Week 28 - Global Symptom Impact Score: 0.1306
  Mean change from baseline in Alopecia Areata Symptom Impact Scale (AASIS) score at Week 28 - Scalp Hair Loss Score: 2.2142
[1]; [5]
  Mean change from baseline in Assessment of Quality of Life-8D (AQoL-8D) score at Week 28: −0.0148
  Mean change from baseline in Alopecia Areata Symptom Impact Scale (AASIS) score at Week 28 - Global Symptom Impact Score: −0.1306
  Mean change from baseline in Alopecia Areata Symptom Impact Scale (AASIS) score at Week 28 - Scalp Hair Loss Score: −2.2142
[2]; 31 late responders, 6 months
  Late responders with CR: 2
  Late responders with a score of 0: 8
  Late responders with a score of >+1: 17
[2]; 31 late responders, 9 months
  Late responders in CR: 4
  Late responders with a score of >+1: 20
[2]; 31 late responders, by 15 months
  Late responders who had achieved CR: 10
[2]; [6]
  Overall effect on hair loss and regrowth: arrested hair loss and stimulated regrowth in the overwhelming majority of patients; also recorded: highly effective
  Tolerability: well tolerated
[2]; later diagnosed with nonalcoholic steatohepatitis
  Patients who developed asymptomatic hepatic transaminitis leading to treatment discontinuation: One
[2]; [7]
  Patients who discontinued all other immunosuppressive treatment after starting tofacitinib, %: 46%
  Patients who discontinued all other immunosuppressive treatment after starting tofacitinib, number: Thirty-three
[2]; of the 67 early responders
  Early responders who achieved a +2: 40%
  Early responders who achieved a +3: 22%
[2]; oral or sublingual
  Patients who have remained in CR for >12 months: nine
  Patients who remain in CR after six months of continued treatment: Twenty-four
  Side effects: infrequent and mild
[2]; oral or sublingual, 3 months
  Increase in hair growth of >+1, % of patients: 56%
  Increase in hair growth of >+1, number of patients: 71
  Mean score on 7-point assessment scale: 0.84 and 0.8
  Patients who achieved +3 (complete response, CR): 12%
[2]; oral or sublingual, 3 months (IQR 0 to +2)
  Median score on 7-point assessment scale: +1 (25-49% hair loss)
[2]; oral or sublingual, 6 months
  Mean score on 7-point assessment scale: 1.1
[2]; oral or sublingual, 9 months
  Mean score on 7-point assessment scale: 1.1
[2]; oral or sublingual, 12 months
  Increase in hair growth of >+1, % of patients: 78%
  Increase in hair growth of >+1, number of patients: 43
  Mean score on 7-point assessment scale: 1.66 and 1.6
  Patients who achieved +3 (complete response, CR): 40%
[2]; oral or sublingual, 12 months (IQR +1 to +3)
  Median score on 7-point assessment scale: +2 (1-24% hair loss)
[2]; oral or sublingual, 15 months
  Mean score on 7-point assessment scale: 1.9
[2]; oral or sublingual, 18 months
  Increase in hair growth of >+1, % of patients: 90%
  Increase in hair growth of >+1, number of patients: 9
  Mean score on 7-point assessment scale: 2.33 and 2.4
  Patients who achieved +3 (complete response, CR): 80%
[2]; oral or sublingual, 18 months (IQR +3 to +3)
  Median score on 7-point assessment scale: +3 (No hair loss (SALT 0))
[2]; oral or sublingual, n = 127
  Early responders (>+1 score by 3 months of treatment), % of patients: 53%
  Early responders (>+1 score by 3 months of treatment), number of patients: Sixty-seven
  Late responders (>+1 score after 6 months of treatment), % of patients: 24%
  Late responders (>+1 score after 6 months of treatment), number of patients: Thirty-one
  Primary treatment failure (failed to respond), number of patients: Twenty-four
  Primary treatment failure, % of patients: 19%
  Relapse (at least one grade deterioration in score), number of patients: Twenty-eight
  Relapse, % of patients: 22%
[2]; [8]
  Primary treatment failure (failed to respond), number of patients: 24
  Relapse (at least one grade deterioration in score), number of patients: 28
[2]; [9]
  Score +1, number of patients: 7
  Score +2, number of patients: 8
  Score +3, % of patients: 18%
  Score +3, number of patients: 7
  Total non-responders, % of patients: 44%
  Total non-responders, number of patients: 17
  Total responders, % of patients: 56%
  Total responders, number of patients: 22
[2]; [10]
  Score +1, number of patients: 4
  Score +2, number of patients: 7
  Score +3, % of patients: 27%
  Score +3, number of patients: 10
  Total non-responders, % of patients: 42%
  Total non-responders, number of patients: 15
  Total responders, % of patients: 58%
  Total responders, number of patients: 21
[2]; [11]
  Score +1, number of patients: 3
  Score +2, number of patients: 4
  Score +3, % of patients: 48%
  Score +3, number of patients: 12
  Total non-responders, % of patients: 24%
  Total non-responders, number of patients: 6
  Total responders, % of patients: 76%
  Total responders, number of patients: 19
[2]; [12]
  Score +1, number of patients: 1
  Score +2, number of patients: 5
  Score +3, % of patients: 52%
  Score +3, number of patients: 11
  Total non-responders, % of patients: 19%
  Total non-responders, number of patients: 4
  Total responders, % of patients: 81%
  Total responders, number of patients: 17
[2]; [13]
  Score +1, number of patients: 1
  Score +2, number of patients: 2
  Score +3, % of patients: 56%
  Score +3, number of patients: 9
  Total non-responders, % of patients: 25%
  Total non-responders, number of patients: 4
  Total responders, % of patients: 75%
  Total responders, number of patients: 12
[2]; [14]
  Score +1, number of patients: 0
  Score +2, number of patients: 1
  Score +3, % of patients: 71%
  Score +3, number of patients: 5
  Total non-responders, % of patients: 14%
  Total non-responders, number of patients: 1
  Total responders, % of patients: 86%
  Total responders, number of patients: 6
[2]; out of 28 who experienced a relapse while on treatment
  Secondary treatment failure, number of patients: Five
[2]; patients with AT/AU
  Patients who achieved a CR, %: 37%
  Patients who achieved a CR, number: 13
  Patients who achieved a response, %: 71%
  Patients who achieved a response, number: 25
[2]; [15]
  Early responders, number of patients: 21
  Late responders, number of patients: 10
  Never responded, number of patients: 6
  Patients who had regrowth: 81.6%
  Relapsed, number of patients: 2
[2]; [16]
  Score +1, number of patients: 21
  Score +2, number of patients: 20
  Score +3, % of patients: 9%
  Score +3, number of patients: 8
  Total non-responders, % of patients: 46.5%
  Total non-responders, number of patients: 41
  Total responders, % of patients: 53%
  Total responders, number of patients: 49
[2]; [17]
  Score +1, number of patients: 18
  Score +2, number of patients: 17
  Score +3, % of patients: 20%
  Score +3, number of patients: 15
  Total non-responders, % of patients: 32%
  Total non-responders, number of patients: 24
  Total responders, % of patients: 68%
  Total responders, number of patients: 50
[2]; [18]
  Score +1, number of patients: 13
  Score +2, number of patients: 12
  Score +3, % of patients: 26%
  Score +3, number of patients: 14
  Total non-responders, % of patients: 26%
  Total non-responders, number of patients: 14
  Total responders, % of patients: 74%
  Total responders, number of patients: 39
[2]; [19]
  Score +1, number of patients: 8
  Score +2, number of patients: 11
  Score +3, % of patients: 32%
  Score +3, number of patients: 11
  Total non-responders, % of patients: 15%
  Total non-responders, number of patients: 5
  Total responders, % of patients: 85%
  Total responders, number of patients: 29
[2]; [20]
  Score +1, number of patients: 3
  Score +2, number of patients: 5
  Score +3, % of patients: 40%
  Score +3, number of patients: 6
  Total non-responders, % of patients: 7%
  Total non-responders, number of patients: 1
  Total responders, % of patients: 93%
  Total responders, number of patients: 14
[2]; [21]
  Score +1, number of patients: 0
  Score +2, number of patients: 0
  Score +3, % of patients: 100%
  Score +3, number of patients: 3
  Total non-responders, number of patients: 0
  Total responders, % of patients: 100%
  Total responders, number of patients: 3
[2]; [22]
  Early responders, % of patients: 51.7%
  Early responders, number of patients: Twenty-nine
  Late responders, % of patients: 19.6%
  Late responders, number of patients: 11
  Patients who achieved a CR: Eighteen
  Primary failures, % of patients: 26.7%
  Primary failures, number of patients: 15
  Secondary failure, number of patients: 1
